PubChem BioAssay AID2060892 (Molecular Pharmacology Branch, DTP, NCI, 2025)

System: HOP-62 complex spheroids with HUVEC/MSC, viability
Experiment: Anticancer human tumor HOP-62 cell line growth inhibition [RAS];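 further: spheroids exposed to agents for seven days before readout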;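 on viability, T/C: 100% = DMSO vehicle control viability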
Settings: for IC50: curve of first compound; for viability, T/C: stronger effect = lower value; active means viability on the fitted dose curve at most 10% of control; inactive means the rest
Summary of the method: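 Multi-cell-type spheroids: tumor cells plus HUVEC endothelial cells and mesenchymal stem cells. RAS-pathway inhibitors were combined with targeted agents, each dosed in half-log steps down from clinical Cmax, or from 10 microM when Cmax was unknown.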

[1] = second compound 0.00316 µM, first compound 0.0316 µM
[2] = second compound 0.00316 µM, first compound 0.1 µM
[3] = second compound 0.00316 µM, first compound 0.316 µM
[4] = second compound 0.00316 µM, first compound 1 µM
[5] = second compound 0.00316 µM, first compound 3.16 µM
[6] = second compound 0.00316 µM, first compound 10 µM
[7] = second compound 0.01 µM, first compound 0.0316 µM
[8] = second compound 0.01 µM, first compound 0.1 µM
[9] = second compound 0.01 µM, first compound 0.316 µM
[10] = second compound 0.01 µM, first compound 1 µM
[11] = second compound 0.01 µM, first compound 3.16 µM
[12] = second compound 0.01 µM, first compound 10 µM
[13] = second compound 0.0316 µM, first compound 0.0316 µM
[14] = second compound 0.0316 µM, first compound 0.1 µM
[15] = second compound 0.0316 µM, first compound 0.316 µM
[16] = second compound 0.0316 µM, first compound 1 µM
[17] = second compound 0.0316 µM, first compound 3.16 µM
[18] = second compound 0.0316 µM, first compound 10 µM
[19] = second compound 0.1 µM, first compound 0.0316 µM
[20] = second compound 0.1 µM, first compound 0.1 µM
[21] = second compound 0.1 µM, first compound 0.316 µM
[22] = second compound 0.1 µM, first compound 1 µM
[23] = second compound 0.1 µM, first compound 3.16 µM
[24] = second compound 0.1 µM, first compound 10 µM
[25] = second compound 0.316 µM, first compound 0.0316 µM
[26] = second compound 0.316 µM, first compound 0.1 µM
[27] = second compound 0.316 µM, first compound 0.316 µM
[28] = second compound 0.316 µM, first compound 1 µM
[29] = second compound 0.316 µM, first compound 3.16 µM
[30] = second compound 0.316 µM, first compound 10 µM
[31] = second compound 1 µM, first compound 0.0316 µM
[32] = second compound 1 µM, first compound 0.1 µM
[33] = second compound 1 µM, first compound 0.316 µM
[34] = second compound 1 µM, first compound 1 µM
[35] = second compound 1 µM, first compound 3.16 µM
[36] = second compound 1 µM, first compound 10 µM

CC1(O)CCCC1n1c(=O)c(C(F)F)cc2cnc(NC3CCN(S(C)(=O)=O)CC3)nc21 (stereo unspecified) + C=CC(=O)N1CCN(c2nc(OCC3CCCN3C)nc3c(F)c(-c4nc(N)cc(C)c4C(F)(F)F)c(Cl)cc23)C(C)C1
94.8 nM: IC50 (second compound 0.01 µM)
81.2 nM: IC50 (second compound 0.1 µM)
55.7 nM: IC50 (second compound 1 µM)
140 nM: IC50 (second compound 0.00316 µM)
< 31.6 nM: IC50 (second compound 0.316 µM)
active: viability, T/C [6] 1.76% | viability, T/C [12] 0.91% | viability, T/C [18] 0.75% | viability, T/C [24] 0.8% | viability, T/C [30] 0.96% | viability, T/C [36] 1.08%
40.3 nM: IC50 (second compound 0.0316 µM)
inactive: viability, T/C [1] 64% | viability, T/C [2] 47.8% | viability, T/C [3] 38.4% | viability, T/C [4] 35.6% | viability, T/C [5] 32.3% | viability, T/C [7] 66.3% | viability, T/C [8] 43.9% | viability, T/C [9] 28.7% | viability, T/C [10] 34% | viability, T/C [11] 27.7% | viability, T/C [13] 55.5% | viability, T/C [14] 39.8% | viability, T/C [15] 29.9% | viability, T/C [16] 28.3% | viability, T/C [17] 22.9% | viability, T/C [19] 66.5% | viability, T/C [20] 40% | viability, T/C [21] 30.1% | viability, T/C [22] 30% | viability, T/C [23] 29.5% | viability, T/C [25] 53.6% | viability, T/C [26] 37.6% | viability, T/C [27] 30.6% | viability, T/C [28] 32.6% | viability, T/C [29] 21.9% | viability, T/C [31] 59.4% | viability, T/C [32] 39.4% | viability, T/C [33] 29.9% | viability, T/C [34] 27.2% | viability, T/C [35] 25.7%

CCN1CCN(Cc2ccc(Nc3ncc(F)c(-c4cc(F)c5nc(C)n(C(C)C)c5c4)n3)nc2)CC1 + C=CC(=O)N1CCN(c2nc(OCC3CCCN3C)nc3c(F)c(-c4nc(N)cc(C)c4C(F)(F)F)c(Cl)cc23)C(C)C1
110 nM: IC50 (second compound 0.0316 µM)
inactive: viability, T/C (second compound 0.00316 µM, first compound 0.00316 µM) 87.7% | viability, T/C (second compound 0.00316 µM, first compound 0.01 µM) 84.1% | viability, T/C [1] 69.2% | viability, T/C [2] 73% | viability, T/C [3] 64.8% | viability, T/C [4] 55.5% | viability, T/C (second compound 0.01 µM, first compound 0.00316 µM) 71.5% | viability, T/C (second compound 0.01 µM, first compound 0.01 µM) 64.3% | viability, T/C [7] 62.5% | viability, T/C [8] 55.9% | viability, T/C [9] 57.3% | viability, T/C [10] 48.8% | viability, T/C (second compound 0.0316 µM, first compound 0.00316 µM) 72.2% | viability, T/C (second compound 0.0316 µM, first compound 0.01 µM) 74.3% | viability, T/C [13] 59% | viability, T/C [14] 52.8% | viability, T/C [15] 47.6% | viability, T/C [16] 46.9% | viability, T/C (second compound 0.1 µM, first compound 0.00316 µM) 69.7% | viability, T/C (second compound 0.1 µM, first compound 0.01 µM) 57.6% | viability, T/C [19] 59.9% | viability, T/C [20] 51.3% | viability, T/C [21] 68.2% | viability, T/C [22] 45.2% | viability, T/C (second compound 0.316 µM, first compound 0.00316 µM) 69% | viability, T/C (second compound 0.316 µM, first compound 0.01 µM) 70.6% | viability, T/C [25] 68.8% | viability, T/C [26] 50.2% | viability, T/C [27] 58% | viability, T/C [28] 46.8% | viability, T/C (second compound 1 µM, first compound 0.00316 µM) 66.7% | viability, T/C (second compound 1 µM, first compound 0.01 µM) 58.6% | viability, T/C [31] 50.6% | viability, T/C [32] 59.9% | viability, T/C [33] 54.7% | viability, T/C [34] 47.1%
> 1000 nM: IC50 (second compound 0.00316 µM) | IC50 (second compound 0.01 µM) | IC50 (second compound 0.1 µM) | IC50 (second compound 1 µM)
613 nM: IC50 (second compound 0.316 µM)

C[C@@H](NC(=O)c1ncnc(N)c1Cl)c1ncc(C(=O)Nc2cc(C(F)(F)F)c(Cl)cn2)s1 + C=CC(=O)N1CCN(c2nc(OCC3CCCN3C)nc3c(F)c(-c4nc(N)cc(C)c4C(F)(F)F)c(Cl)cc23)C(C)C1
> 10000 nM: IC50 (second compound 0.00316 µM) | IC50 (second compound 0.316 µM) | IC50 (second compound 1 µM)
4320 nM: IC50 (second compound 0.0316 µM)
inactive: viability, T/C [1] 88.6% | viability, T/C [2] 80.2% | viability, T/C [3] 80.9% | viability, T/C [4] 83.9% | viability, T/C [5] 71.8% | viability, T/C [6] 53.3% | viability, T/C [7] 74.8% | viability, T/C [8] 67% | viability, T/C [9] 69.7% | viability, T/C [10] 67.1% | viability, T/C [11] 63.4% | viability, T/C [12] 48.1% | viability, T/C [13] 69.1% | viability, T/C [14] 67% | viability, T/C [15] 71.1% | viability, T/C [16] 70% | viability, T/C [17] 52.2% | viability, T/C [18] 43.9% | viability, T/C [19] 69.2% | viability, T/C [20] 68.5% | viability, T/C [21] 64% | viability, T/C [22] 70.3% | viability, T/C [23] 58% | viability, T/C [24] 47.6% | viability, T/C [25] 67.5% | viability, T/C [26] 67% | viability, T/C [27] 69.8% | viability, T/C [28] 64.7% | viability, T/C [29] 57.7% | viability, T/C [30] 49.2% | viability, T/C [31] 66.7% | viability, T/C [32] 63.3% | viability, T/C [33] 64.1% | viability, T/C [34] 63.6% | viability, T/C [35] 55.9% | viability, T/C [36] 52.4%
7860 nM: IC50 (second compound 0.1 µM)
8690 nM: IC50 (second compound 0.01 µM)
